Activity calls are given as the source filed them.
Experiments:
BJ [1] = test: BJ-TERT fibroblast viability loss – cell-based, RAS-independent, luminescence, dose response (AID 1933); format: functional; details: Homo sapiens
BJ [2] = test: cells; format: functional, cell-based; details: Homo sapiens
BJ [3] = test: BJ-TERT-LT-ST fibroblast viability loss – cell-based, RAS-independent, luminescence, dose response (AID 1935); format: functional; details: Homo sapiens;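 further: BJ fibroblasts immortalized with TERT plus LT and ST oncogenes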
[4] = DRD fibroblast viability loss – cell-based, non-viral oncogenic, luminescence, dose response (AID 1934); format: functional; details: Homo sapiens
BJ [5] = test: growth inhibition of engineered Ras-driven BJ cells – cell-based, alamar blue fluorescence, cherrypicked samples, dose response (AID 2631); format: functional; details: Homo sapiens;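 further: confirmatory dose-response assay in RAS-dependent BJ fibroblasts engineered with TERT, LT and ST, with cytotoxicity read by fluorescence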
[6] = molecular target: T1, Sentrin-specific protease 8 (Homo sapiens, UniProt Q96LD8); test: inhibition of human SENP8 cleavage activity – biochemical, luminescence, SAR follow-up (AID 504501); format: functional
T1 sequence (Q96LD8 whole entry): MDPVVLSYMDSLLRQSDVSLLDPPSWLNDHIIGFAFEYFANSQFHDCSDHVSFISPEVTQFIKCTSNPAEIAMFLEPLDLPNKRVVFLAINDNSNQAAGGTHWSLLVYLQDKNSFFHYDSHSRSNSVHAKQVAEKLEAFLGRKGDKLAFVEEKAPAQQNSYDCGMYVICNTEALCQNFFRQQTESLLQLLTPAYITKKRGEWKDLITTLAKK

Caspase-3 = molecular target: T2, Caspase-3 (Homo sapiens, UniProt P42574); test: SAR Analysis of small molecule inhibitors of Sentrin-specific proteases (SENPs) using a Caspase-3 Selectivity assay. [Related pubchem assays (depositor defined):AID2540, AID2599, AID434973, AID489001]; format: functional
T2 sequence (P42574 whole entry): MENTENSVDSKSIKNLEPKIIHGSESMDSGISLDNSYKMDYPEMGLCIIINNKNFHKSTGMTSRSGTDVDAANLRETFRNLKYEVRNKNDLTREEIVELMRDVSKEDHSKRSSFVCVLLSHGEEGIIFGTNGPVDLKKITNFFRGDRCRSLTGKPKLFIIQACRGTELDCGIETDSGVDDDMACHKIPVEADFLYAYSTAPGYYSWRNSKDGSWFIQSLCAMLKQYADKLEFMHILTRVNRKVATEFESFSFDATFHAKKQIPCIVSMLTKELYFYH

[7] = molecular target: T3, Sentrin-specific protease 6 (Homo sapiens, UniProt Q9GZR1); test: SAR Analysis of small molecule inhibitors of Sentrin-specific protease 6 (SENP6) using a Luminescent assay. [Related pubchem assays (depositor defined):AID2582, AID2599]; format: functional
T3 sequence (Q9GZR1 whole entry): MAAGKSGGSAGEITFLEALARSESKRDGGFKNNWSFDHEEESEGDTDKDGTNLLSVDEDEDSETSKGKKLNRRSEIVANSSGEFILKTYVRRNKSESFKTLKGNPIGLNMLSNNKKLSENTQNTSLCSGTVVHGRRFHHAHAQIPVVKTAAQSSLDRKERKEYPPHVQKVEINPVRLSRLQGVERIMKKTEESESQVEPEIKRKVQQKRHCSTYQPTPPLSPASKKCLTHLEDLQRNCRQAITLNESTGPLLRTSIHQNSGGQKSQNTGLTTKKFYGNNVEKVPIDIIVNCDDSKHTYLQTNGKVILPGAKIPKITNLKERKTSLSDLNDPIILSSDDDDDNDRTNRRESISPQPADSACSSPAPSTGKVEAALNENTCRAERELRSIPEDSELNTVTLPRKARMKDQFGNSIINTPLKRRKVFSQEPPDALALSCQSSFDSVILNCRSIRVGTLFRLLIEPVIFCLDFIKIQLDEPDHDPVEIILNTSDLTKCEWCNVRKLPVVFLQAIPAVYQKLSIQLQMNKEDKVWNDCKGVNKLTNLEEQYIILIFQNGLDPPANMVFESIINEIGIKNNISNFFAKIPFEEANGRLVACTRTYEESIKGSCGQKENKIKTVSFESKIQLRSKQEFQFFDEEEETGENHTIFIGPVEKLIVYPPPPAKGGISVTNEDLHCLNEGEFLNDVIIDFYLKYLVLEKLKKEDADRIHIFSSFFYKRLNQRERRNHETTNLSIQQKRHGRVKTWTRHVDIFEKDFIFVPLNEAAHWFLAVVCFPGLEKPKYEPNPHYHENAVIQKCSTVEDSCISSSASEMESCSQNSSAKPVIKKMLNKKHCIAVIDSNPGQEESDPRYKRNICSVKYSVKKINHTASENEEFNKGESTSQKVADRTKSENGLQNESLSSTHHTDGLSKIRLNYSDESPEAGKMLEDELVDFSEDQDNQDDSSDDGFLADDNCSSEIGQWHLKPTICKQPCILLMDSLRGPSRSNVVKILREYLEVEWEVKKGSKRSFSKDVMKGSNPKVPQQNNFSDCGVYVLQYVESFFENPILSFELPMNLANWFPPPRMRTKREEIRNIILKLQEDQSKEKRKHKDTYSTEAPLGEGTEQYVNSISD

[8] = molecular target: T4, Sentrin-specific protease 7 (Homo sapiens, UniProt Q9BQF6); test: inhibition of human SENP7 cleavage activity – biochemical, luminescence, SAR follow-up (AID 504497); format: functional
T4 sequence (Q9BQF6 whole entry): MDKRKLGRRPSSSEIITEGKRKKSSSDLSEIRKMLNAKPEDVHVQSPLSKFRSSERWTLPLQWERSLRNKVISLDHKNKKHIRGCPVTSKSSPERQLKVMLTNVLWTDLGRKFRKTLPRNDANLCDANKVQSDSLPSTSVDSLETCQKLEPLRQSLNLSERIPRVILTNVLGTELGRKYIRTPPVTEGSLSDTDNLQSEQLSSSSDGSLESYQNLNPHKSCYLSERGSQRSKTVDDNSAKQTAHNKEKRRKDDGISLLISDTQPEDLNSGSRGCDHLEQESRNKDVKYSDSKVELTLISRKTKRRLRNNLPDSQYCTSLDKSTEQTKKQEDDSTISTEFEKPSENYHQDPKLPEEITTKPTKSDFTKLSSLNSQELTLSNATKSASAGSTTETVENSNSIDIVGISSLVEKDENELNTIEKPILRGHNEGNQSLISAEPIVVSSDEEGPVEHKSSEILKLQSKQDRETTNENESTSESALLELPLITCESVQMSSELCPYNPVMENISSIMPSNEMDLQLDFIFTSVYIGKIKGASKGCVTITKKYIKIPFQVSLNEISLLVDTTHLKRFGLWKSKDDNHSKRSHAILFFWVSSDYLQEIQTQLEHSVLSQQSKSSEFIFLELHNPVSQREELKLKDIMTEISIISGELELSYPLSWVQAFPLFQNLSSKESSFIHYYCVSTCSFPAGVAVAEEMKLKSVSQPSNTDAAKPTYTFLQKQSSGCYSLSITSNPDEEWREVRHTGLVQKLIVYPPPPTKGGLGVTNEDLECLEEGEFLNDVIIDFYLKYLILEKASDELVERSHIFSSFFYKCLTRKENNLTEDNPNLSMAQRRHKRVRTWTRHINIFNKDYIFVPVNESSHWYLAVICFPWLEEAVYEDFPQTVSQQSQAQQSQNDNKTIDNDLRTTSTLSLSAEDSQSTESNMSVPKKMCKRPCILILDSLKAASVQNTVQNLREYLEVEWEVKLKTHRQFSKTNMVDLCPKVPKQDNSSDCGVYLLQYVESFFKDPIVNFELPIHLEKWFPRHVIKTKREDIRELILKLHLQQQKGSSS

Cysteine protease ATG4B = Cysteine protease ATG4B (Homo sapiens, UniProt Q9Y4P1); format: functional;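 further: Fluorescence-based dose-response confirmation assay measuring inhibition of ATG4B activity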
[9] = molecular target: Heat shock protein HSP 90-alpha (Homo sapiens, UniProt P07900); format: functional, organism-based
Phospholipase A2 = Phospholipase A2 (Homo sapiens, UniProt P04054); format: functional;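 further: confirmatory dose-response counterscreen on phospholipase A2, testing hits that came from an ultra-high-throughput screen for ATG4B inhibitors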
[10] = molecular target: 26S proteasome non-ATPase regulatory subunit 14 (Homo sapiens, UniProt O00487); test: inhibition of proteasome subunit RPN11 – biochemical, fluorescence polarization, uHTS hits, confirmation (AID 602368); format: functional
[11] = molecular target: 72 kDa type IV collagenase (Homo sapiens, UniProt P08253); test: Dose Response validation of uHTS RPN11 inhibitor hits using a MMP-2 Fluorescence assay.; format: functional
Prothrombin = Prothrombin (Bos taurus, UniProt P00735); test: thrombin protease inhibitors – biochemical, fluorescence polarization, uHTS hits, dose response (AID 602369); format: functional
[12] = viability loss in HeLa cells – cytotoxicity control for MgcRacGAP inhibitor project, dose response (AID 624300); format: functional
[13] = molecular target: T5, Rac GTPase-activating protein 1 (Homo sapiens, UniProt Q9H0H5); test: blockers of MgcRacGAP-driven Rac1 GTP hydrolysis – biochemical, ADP Hunter fluorescence, primary and confirmatory, confirmation (AID 624330); format: functional
T5 sequence (Q9H0H5 whole entry): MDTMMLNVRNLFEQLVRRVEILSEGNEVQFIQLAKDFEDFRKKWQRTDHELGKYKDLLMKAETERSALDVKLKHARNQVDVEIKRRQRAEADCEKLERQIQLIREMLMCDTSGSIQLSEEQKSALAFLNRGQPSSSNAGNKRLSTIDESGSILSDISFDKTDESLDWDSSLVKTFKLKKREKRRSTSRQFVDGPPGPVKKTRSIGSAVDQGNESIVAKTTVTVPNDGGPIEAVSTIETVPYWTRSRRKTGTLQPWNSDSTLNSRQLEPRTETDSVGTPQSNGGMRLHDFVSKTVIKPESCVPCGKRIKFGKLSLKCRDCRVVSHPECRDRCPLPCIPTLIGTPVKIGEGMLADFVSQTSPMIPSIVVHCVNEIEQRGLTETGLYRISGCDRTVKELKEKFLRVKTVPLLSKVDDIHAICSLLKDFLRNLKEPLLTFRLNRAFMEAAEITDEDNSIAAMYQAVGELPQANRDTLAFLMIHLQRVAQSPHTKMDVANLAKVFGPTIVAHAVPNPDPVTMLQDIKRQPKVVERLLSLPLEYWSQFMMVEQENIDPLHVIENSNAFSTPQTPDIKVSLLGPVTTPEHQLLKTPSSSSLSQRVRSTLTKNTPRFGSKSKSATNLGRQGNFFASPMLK

[14] = molecular target: T6, DNA repair protein RAD52 homolog (Homo sapiens, UniProt P43351); format: functional, biochemical
T6 sequence (P43351 whole entry): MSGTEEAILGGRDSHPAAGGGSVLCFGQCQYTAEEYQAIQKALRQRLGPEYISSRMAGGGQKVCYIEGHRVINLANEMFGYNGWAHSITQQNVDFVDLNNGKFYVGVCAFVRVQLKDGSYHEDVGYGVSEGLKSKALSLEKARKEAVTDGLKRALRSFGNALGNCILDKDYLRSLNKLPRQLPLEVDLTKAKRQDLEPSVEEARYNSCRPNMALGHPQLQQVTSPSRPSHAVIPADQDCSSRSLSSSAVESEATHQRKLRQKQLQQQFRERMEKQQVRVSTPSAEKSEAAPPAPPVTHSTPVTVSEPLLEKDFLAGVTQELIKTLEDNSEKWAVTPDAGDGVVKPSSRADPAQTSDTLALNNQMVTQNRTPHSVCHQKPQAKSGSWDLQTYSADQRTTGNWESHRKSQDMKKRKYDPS

Chain of Phospholipase A2 (P04054 whole entry): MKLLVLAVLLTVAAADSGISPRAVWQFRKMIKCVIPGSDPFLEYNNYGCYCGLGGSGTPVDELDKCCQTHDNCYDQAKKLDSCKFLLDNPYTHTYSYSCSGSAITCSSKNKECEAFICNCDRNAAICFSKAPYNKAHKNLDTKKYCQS
Chain of 26S proteasome non-ATPase regulatory subunit 14 (O00487 whole entry): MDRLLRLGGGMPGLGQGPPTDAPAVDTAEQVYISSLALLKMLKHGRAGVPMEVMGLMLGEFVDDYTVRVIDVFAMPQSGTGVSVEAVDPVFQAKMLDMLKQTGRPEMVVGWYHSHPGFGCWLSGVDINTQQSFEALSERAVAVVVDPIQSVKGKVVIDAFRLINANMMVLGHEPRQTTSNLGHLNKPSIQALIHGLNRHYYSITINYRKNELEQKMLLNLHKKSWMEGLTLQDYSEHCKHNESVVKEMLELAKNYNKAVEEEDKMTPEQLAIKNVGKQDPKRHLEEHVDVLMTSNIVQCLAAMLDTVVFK
Chain of 72 kDa type IV collagenase (P08253 whole entry): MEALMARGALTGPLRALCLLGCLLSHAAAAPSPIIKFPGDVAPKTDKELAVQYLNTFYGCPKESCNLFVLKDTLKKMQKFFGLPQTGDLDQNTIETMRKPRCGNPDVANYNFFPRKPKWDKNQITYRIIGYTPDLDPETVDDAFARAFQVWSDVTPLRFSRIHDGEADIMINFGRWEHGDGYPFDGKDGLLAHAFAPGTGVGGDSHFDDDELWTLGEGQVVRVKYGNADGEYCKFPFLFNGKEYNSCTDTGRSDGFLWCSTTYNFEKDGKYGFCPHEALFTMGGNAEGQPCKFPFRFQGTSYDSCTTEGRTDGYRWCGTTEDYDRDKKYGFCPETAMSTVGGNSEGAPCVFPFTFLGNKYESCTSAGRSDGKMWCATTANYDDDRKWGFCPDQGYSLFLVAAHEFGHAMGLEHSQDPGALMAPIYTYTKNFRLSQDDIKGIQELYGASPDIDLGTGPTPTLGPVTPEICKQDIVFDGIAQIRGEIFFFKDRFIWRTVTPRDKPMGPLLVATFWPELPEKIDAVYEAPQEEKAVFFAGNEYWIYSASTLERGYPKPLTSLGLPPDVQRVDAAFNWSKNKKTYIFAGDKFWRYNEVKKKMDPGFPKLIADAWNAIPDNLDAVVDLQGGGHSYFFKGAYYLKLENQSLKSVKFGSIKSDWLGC
Chain of Cysteine protease ATG4B (Q9Y4P1 whole entry): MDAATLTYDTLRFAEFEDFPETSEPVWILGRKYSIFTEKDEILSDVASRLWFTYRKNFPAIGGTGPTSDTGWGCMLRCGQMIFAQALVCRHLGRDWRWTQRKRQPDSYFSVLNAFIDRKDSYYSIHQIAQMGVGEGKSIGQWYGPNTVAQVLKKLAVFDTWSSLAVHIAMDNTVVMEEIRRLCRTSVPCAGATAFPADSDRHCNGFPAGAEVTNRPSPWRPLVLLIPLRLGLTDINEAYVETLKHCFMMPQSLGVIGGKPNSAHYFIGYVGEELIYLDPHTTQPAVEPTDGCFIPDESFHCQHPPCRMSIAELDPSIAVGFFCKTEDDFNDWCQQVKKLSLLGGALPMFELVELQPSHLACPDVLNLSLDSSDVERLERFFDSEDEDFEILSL

Row | SMILES | EC50 (BJ [1]) | EC50 (BJ [2]) | EC50 (BJ [3]) | EC50 [4] | EC50 (BJ [5]) | IC50 [6] | IC50 (Caspase-3) | IC50 [7] | IC50 [8] | other results
1 | COc1cccc(/C=C2\SC(=S)N(CCCC(=O)Nc3cc(C)on3)C2=O)c1 | 3.22 µM (inconclusive) | > 150 µM (not active) | > 150 µM (not active) | > 150 µM (not active) | > 133 µM (inactive) | – | – | – | – | –
2 | O=C1SC(Cc2ccccc2)C(=O)N1c1ccccc1 (configuration not stated) | 5.85 µM (active) | > 150 µM (not active) | > 150 µM (not active) | 20.8 µM (active) | > 66.7 µM (inactive) | – | – | – | – | –
3 | O=C(O)c1ccc(N/N=C/c2cn(Cc3ccccc3)c3ccccc23)cc1 | – | – | – | – | – | > 99 µM (inactive) | > 99 µM (inactive) | > 99 µM (inactive) | 96.9 µM (active) | –
4 | CCCC(=O)Nc1ccc(-c2nc3cc(Cl)ccc3s2)cc1 | – | – | – | – | – | 82.4 µM (active) | 18.7 µM (active) | 84.4 µM (active) | 10.9 µM (active) | –
5 | CCCCCCCCCCCCCCCC(O)C[N+](C)(C)CCO (configuration not stated) | – | – | – | – | – | – | – | – | – | IC50 (Cysteine protease ATG4B): 7.58 µM (active); AC50 [9]: 5 µM (active); IC50 (Phospholipase A2): 6.53 µM (active); IC50 [10]: 22.1 µM (active); IC50 [11]: 81.8 µM (active); IC50 (Prothrombin): 45.1 µM (active); CC50 [12]: 33.4 µM (active); IC50 [13]: 86 µM (active); AC50 [14]: < 30.4 µM (active)
